The values below come from patent US20140315956A1, “SMALL MOLECULE INHIBITORS OF IL-6 AND USES THEREOF” (NATIONWIDE CHILDREN'S HOSPITAL, priority 2011, published 2014).

Experiment [1] has as its target T1, GP130 (Homo sapiens, UniProt P40189).
T1 sequence (P40189 23-918): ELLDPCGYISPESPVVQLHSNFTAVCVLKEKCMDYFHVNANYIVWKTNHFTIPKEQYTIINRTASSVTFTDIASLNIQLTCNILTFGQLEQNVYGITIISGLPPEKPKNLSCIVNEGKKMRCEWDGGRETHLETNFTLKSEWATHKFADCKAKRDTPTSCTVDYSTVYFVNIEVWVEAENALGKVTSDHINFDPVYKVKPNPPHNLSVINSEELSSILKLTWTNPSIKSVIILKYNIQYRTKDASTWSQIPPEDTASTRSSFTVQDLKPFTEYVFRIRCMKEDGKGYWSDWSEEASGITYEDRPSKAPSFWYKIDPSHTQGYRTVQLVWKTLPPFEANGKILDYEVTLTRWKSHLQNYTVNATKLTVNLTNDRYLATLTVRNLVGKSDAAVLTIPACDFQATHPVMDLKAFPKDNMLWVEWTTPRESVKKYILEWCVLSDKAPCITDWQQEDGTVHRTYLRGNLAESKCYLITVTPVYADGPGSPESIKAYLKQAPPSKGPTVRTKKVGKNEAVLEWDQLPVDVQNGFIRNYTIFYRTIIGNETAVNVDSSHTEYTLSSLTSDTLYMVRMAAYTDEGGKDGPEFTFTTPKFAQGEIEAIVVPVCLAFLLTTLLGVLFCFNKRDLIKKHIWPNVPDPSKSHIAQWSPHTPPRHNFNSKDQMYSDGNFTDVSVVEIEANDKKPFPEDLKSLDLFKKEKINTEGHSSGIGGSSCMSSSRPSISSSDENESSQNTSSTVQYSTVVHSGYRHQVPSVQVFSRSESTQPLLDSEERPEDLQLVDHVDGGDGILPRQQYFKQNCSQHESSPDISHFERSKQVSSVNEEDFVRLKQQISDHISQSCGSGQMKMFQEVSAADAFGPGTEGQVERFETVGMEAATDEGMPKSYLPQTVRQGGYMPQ
The experiment can be described thus: Literature binding of madindoline A to GP130. The settings on record: compared with the docking free energy. The source says:
Several synthetic approaches to the preparation of the natural product have been reported (ref. 22 and references therein), but due to the length and complexity of the syntheses cannot be applied economically in a pharmaceutical process. A structure-based approach to the synthesis of madindoline A analogues has not yet been reported.

Experiment [2] deals with IL-6-dependent murine hepatoma cell line MH60. Conditions: Omura and coworkers; cited from earlier work.
The subject of experiment [3] is IL-6-dependent STAT3 tyrosine phosphorylation in HepG2 cells. Conditions: Saleh and coworkers; cited from earlier work.
The test system of experiment [4] is Stat3 phosphorylation (p-Tyr705) induced by IL-6 in LNCaP prostate cancer cells. Briefly: IL-6 induced Stat3 phosphorylation in LNCaP cells, Western blot. The format is cell-based. The settings on record: IL-6 12.5 ng/ml 30 min, Western blot. The procedure:
LNCaP prostate cancer cells were acquired from American Type Culture Collection. Cells were maintained in RPMI 1640 medium, 1× with 4.5 g/L L-glutamine, supplemented with 10% FBS, 100 U/ml penicillin and […] streptomycin (Invitrogen), in a humidified atmosphere of 5% CO2 at 37° C.
LNCaP prostate cancer cells were seeded in T75 flasks, grown to 50% confluence and serum-starved the following night. The cells were left untreated or were treated with MDL-A (100-400 μM), 1, 2 (5-40 μM) or DMSO in the absence of FBS. After 4 hours, the cells were stimulated with 12.5 ng/ml IL-6 (Cell Signaling Technology). The cells were then harvested at 30 minutes and washed with PBS and lysed in cold M-PER lysis buffer (Pierce) containing protease inhibitors (Sigma) and phosphatase inhibitors (Roche). Lysates were centrifuged at 14,000 rpm for 15 minutes at 4° C. and supernatants were collected and stored at −20° C. until further use.
Cell lysates were assayed for their protein concentrations using the Bradford protein assay reagent (Pierce), using BSA (Fisher Scientific) as the standard. Lysate samples were adjusted for the same protein concentration, approximately 5 μg of sample protein was loaded into each of the appropriate lanes. Protein samples were separated by SDS-PAGE and electrotransferred to PVDF membranes. The membranes were washed and blocked with 5% BSA in TBST (60 mM Tris-base, 120 mM NaCl, 0.1% Tween-20) for at least one hour and incubated with anti-phospho-STAT3 (p-Tyr705) antibody, anti-STAT3 antibody or anti-GAPDH antibody (all from Cell Signaling Technology) in 5% BSA in TBST overnight at 4° C. Blots were then washed three times in TBST and incubated with a horseradish peroxidase-conjugated goat anti-rabbit IgG secondary antibody (Cell Signaling Technology) in 5% BSA in TBST for 1 hour at room temperature. The bound antibody was detected using Enhanced Chemiluminescence detection reagents (Pierce) according to the manufacturer's instructions and chemiluminescence visualized using ECL Hyperfilm (Amersham).

The target in experiment [5] is T1, GP130. Conditions: reported by Saleh et al.; read-out: GP130 binding affinity KD; cited from earlier work.
Experiment [6] deals with IL-6-independent MH60 cells. Conditions: Omura and coworkers; cited from earlier work.

The structures appear in SMILES notation. Entries after “also recorded” stand apart in the source; their conditions may differ.

On to `CCCCC1=C(C)C(=O)[C@@](C)(CN2c3ccccc3[C@]3(O)CCO[C@H]23)C1=O` [MDL-A, (+)-Madindoline A, reference compound], for which the “experimental binding free energy” value at GP130 [1] is -5.0 kcal/mol. For the same compound, in experiment [2], the “growth of IL-6-dependent MH60 cells” value is listed as “specifically inhibited the growth”. Moreover, the “IL-6-dependent STAT3 tyrosine phosphorylation” value in experiment [3] is reported as “inhibits IL-6-dependent STAT3 tyrosine phosphorylation”. The “inhibition of Stat3 phosphorylation induced by IL6” value in experiment [4] was “inhibit Stat3 phosphorylation; also recorded: dose dependent inhibition”. In addition, the Kd on GP130 [5] was 288 µM. The “growth of IL-6-independent MH60 cells” value in experiment [6] is “unaffected”.
